Results published in paper PMC8945811 (2022).

What was measured:
[1] = system: poly dA-poly rU (DNA:RNA, polymer) A/U; assay: UV melting of four-polynucleotide mixture, 260 nm; details: Na-cacodylate with NaCl, I = 0.1 M; pH 7.0, 1 mM EDTA; 2 μM compound, 20 μM (bp) each polynucleotide, r = 0.025; error ±0.5; per base
poly rA (RNA, polymer) A = assay: competition dialysis; details: Na-cacodylate, I = 0.05 M; pH 7, 1 mM EDTA, 25 °C, 24 h; 5 μM compound; bound amount only in figure
[2] = system: ATT 26mer triplex (DNA, triplex) AAAAAAAAAAAAAAAAAAAAAAAAAA/TTTTTTTTTTTTTTTTTTTTTTTTTT/TTTTTTTTTTTTTTTTTTTTTTTTTT; assay: fluorescence titration, Scatchard; details: Na-cacodylate, I = 0.05 M; pH 7.0, 1 mM EDTA, 25 °C; per phosphate; per base
[3] = system: poly dA-poly dT (DNA, polymer) A/T; assay: CD titration; details: Na-cacodylate, I = 0.05 M; pH 7.0, 1 mM EDTA; 30 μM polynucleotide, r = 0.3; bisignate ICD, minor-groove dimers
[4] = system: ATT triplex (poly dA-2poly dT) (DNA, polymer) A/T/T; assay: UV melting, 260 nm; details: Na-cacodylate with NaCl, I = 0.1 M, pH 7.0, 1 mM EDTA, r = 0.1, error ±0.5, per base
[5] = system: poly dA-poly dT (DNA, polymer) A/T; assay: UV melting of four-polynucleotide mixture, 260 nm; details: Na-cacodylate with NaCl, I = 0.1 M; pH 7.0, 1 mM EDTA; 2 μM compound, 20 μM (bp) each polynucleotide, r = 0.025; error ±0.5; per base
[6] = system: poly rA-poly rU (RNA, polymer) A/U; assay: UV melting of four-polynucleotide mixture, 260 nm; details: Na-cacodylate with NaCl, I = 0.1 M; pH 7.0, 1 mM EDTA; 2 μM compound, 20 μM (bp) each polynucleotide, r = 0.025; error ±0.5; per base
[7] = system: poly rA-poly rU (RNA, polymer) A/U; assay: CD titration; details: Na-cacodylate, I = 0.05 M, 30 μM polynucleotide
[8] = system: poly dA-poly rU (DNA:RNA, polymer) A/U; assay: fluorescence titration, Scatchard; details: Na-cacodylate; pH 7.0, 1 mM EDTA, 25 °C; per phosphate; table footnote says I = 0.05 M; per base
[9] = system: ATT triplex (poly dA-2poly dT) (DNA, polymer) A/T/T; assay: fluorescence titration, Scatchard; details: Na-cacodylate, I = 0.05 M; pH 7.0, 1 mM EDTA, 25 °C; per phosphate; per base
poly dT (DNA, polymer) T = assay: competition dialysis; details: Na-cacodylate, I = 0.05 M; pH 7, 1 mM EDTA, 25 °C, 24 h; 5 μM compound; bound amount only in figure
[10] = system: poly rA-poly dT (DNA:RNA, polymer) A/T; assay: UV melting of four-polynucleotide mixture, 260 nm; details: Na-cacodylate with NaCl, I = 0.1 M; pH 7.0, 1 mM EDTA; 2 μM compound, 20 μM (bp) each polynucleotide, r = 0.025; error ±0.5; per base
[11] = system: poly rA-poly dT (DNA:RNA, polymer) A/T; assay: ITC; details: Na-cacodylate, I = 0.05 M; pH 7.0, 1 mM EDTA, 25 °C; one-site fit; per base
[12] = system: ATT triplex (poly dA-2poly dT) (DNA, polymer) A/T/T; assay: ITC; details: Na-cacodylate, I = 0.05 M; pH 7.0, 1 mM EDTA, 25 °C; site with n 0.1 of two-site fit (other site 6.5, n 0.7); per base
[13] = third-strand transition (duplex transition 0)

ΔTm [1] [°C] | binding (poly rA (RNA, polymer) A) | log Ks [2] | binding [3] | ΔTm [4, 13] [°C] | ΔTm [5] [°C] | ΔTm [6] [°C] | binding ([7]; pH 7.0, 1 mM EDTA, r = 0.3, negative ICD, intercalation) | log Ks [8] | log Ks [9] | binding (poly dT (DNA, polymer) T) | ΔTm [10] [°C] | ΔTm ([4]; third-strand transition (duplex transition 21.9)) [°C] | log Ks [11] | log Ks [12] | binding ([7]; pH 7.0, bisignate ICD, major-groove dimers) | Compound
5.5 | yes | 7.4 | yes | 43.7 | 0 | 0 | yes | 8.0 | 7.6 |  |  |  |  |  |  | Clc1c(-c2nc3ccc(C4=NCCN4)cc3s2)sc2ccccc12
5.6 | yes |  |  |  | 19.1 | 2.2 |  |  |  | yes | 1.7 | 31.7 | 7.8 | 8.7 |  | c1cc2nc(-c3cncc(-c4nc5ccc(C6=NCCN6)cc5s4)c3)sc2cc1C1=NCCN1
 |  |  |  | 27.3 | 2.1 |  |  |  |  |  | 1.7 |  |  |  | yes | c1csc(-c2ccc(-c3nc4ccc(C5=NCCN5)cc4s3)s2)c1
